Data on five compounds can be found in article PMC8165160, “Substrate Specificities and Inhibition Pattern of the Solute Carrier Family 10 Members NTCP, ASBT and SOAT” (Frontiers in Molecular Biosciences, 2021).

Experiment [1] deals with T1, NTCP (Homo sapiens, UniProt Q14973).
T1 sequence (Q14973 1-349): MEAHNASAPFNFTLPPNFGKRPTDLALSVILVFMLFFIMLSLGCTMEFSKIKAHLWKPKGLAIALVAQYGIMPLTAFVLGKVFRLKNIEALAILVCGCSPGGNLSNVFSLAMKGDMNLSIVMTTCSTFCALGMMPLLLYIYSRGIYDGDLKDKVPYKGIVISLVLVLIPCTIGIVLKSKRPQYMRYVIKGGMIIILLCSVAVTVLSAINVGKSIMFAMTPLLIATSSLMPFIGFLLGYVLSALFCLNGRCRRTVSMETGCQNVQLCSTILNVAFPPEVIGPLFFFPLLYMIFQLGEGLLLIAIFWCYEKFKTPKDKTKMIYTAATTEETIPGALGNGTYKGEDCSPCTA
In words: Transport kinetics (concentration-dependent uptake) in NTCP-HEK293 cells. The format is cell-based. Further details: The full-length open reading frames of NTCP, ASBT, and SOAT were cloned; expressed in transfected cells; host or cells: Flp-In T-REX HEK293 (NTCP-HEK293), tetracycline-induced. Conditions: uptake via NTCP, 1 min, 37°C. Here is the method: (§1) Uptake experiments were initiated by replacing the preincubation buffer by 500 μL transport buffer containing the radiolabeled test compound and were performed at 37°C. Transport was terminated by removing the transport buffer and washing five-times with ice-cold PBS. Cell monolayers were lysed in 1 N NaOH with 0.1% SDS and the cell-associated radioactivity was determined by liquid scintillation counting.
FIGURE 2 NTCP, ASBT, and SOAT transport kinetics. Concentration-dependent uptake was analyzed in NTCP-HEK293, ASBT-HEK293, and SOAT-HEK293 cells for the indicated substrates at increasing substrate concentrations. Stably transfected HEK293 cells were pretreated with 1 μg/ml tetracycline to induce carrier expression. HEK293-FlpIn cells were used as control. Uptake was analyzed for 1 min at 37°C. Afterward, the medium was removed and each cell monolayer was washed and processed to determine the protein content and cell-associated radioactivity. Specific uptake was calculated by subtracting non-specific uptake of the HEK293-FlpIn control cells (open squares) from uptake into carrier-overexpressing HEK293 cells (filled squares) and is shown by broken lines. The values represent means ± SD of duplicate experiments, each with triplicate determinations (n = 6).

For experiment [2], the target named is T1, NTCP. The experiment in a line: Substrate screening: sodium-dependent uptake of radiolabeled compounds in NTCP-HEK293 cells. Conditions: radiolabeled steroid compounds 200 nM, 10 min, NTCP-HEK293, vs sodium-free control. Further details: The full-length open reading frames of NTCP, ASBT, and SOAT were cloned; expressed in transfected cells; host or cells: Flp-In T-REX HEK293 (NTCP-HEK293), tetracycline-induced. It counts as cell-based. Here is the method:
(§2) Stably SLC10 transporter transfected NTCP-HEK293, ASBT-HEK293, SOAT-HEK293 cells and the HEK293-FlpIn maternal cell line were seeded on 24-well plates (if not stated otherwise for individual assays). Well plates were coated with poly-D-lysine prior to seeding of 125,000 cells per well. Cells were grown with 1 ml of standard medium per well with or without tetracycline ([…]) for 72 h to induce carrier expression before respective assays were started. HEK293-FlpIn cells were cultivated with standard medium and served as control.
as §1
(§3) FIGURE 1 Comparative substrate screening for bile acids and sulfated steroids in NTCP-, ASBT-, and SOAT-HEK293 cells. Transport assays were performed with the indicated substrates in NTCP-HEK293, ABST-HEK293, SOAT-HEK293, and HEK293-FlpIn cells. Cells were washed and equilibrated with Na^+-containing transport buffer (filled bars) or with Na^+-free transport buffer (open bars) at 37°C. For uptake, cells were incubated with radiolabeled steroid compounds at a final concentration of 200 nM in Na^+-containing or Na^+-free transport buffer for 10 min. Radiolabeled bile acids were used at 1 µM concentrations and transport was analyzed over 30 min. HEK293-FlpIn cells served as additional controls. After the indicated time intervals, cells were washed with ice-cold PBS, lysed and subjected to liquid scintillation counting. […] 3-OH, trihydroxylated BAs; 2-OH, dihydroxylated BAs; 1-OH, monohydroxylated BAs.

In experiment [3] the target is T2, SOAT (Homo sapiens, UniProt Q3KNW5).
T2 construct: The full-length open reading frames of NTCP, ASBT, and SOAT were cloned; expressed in transfected cells; host or cells: Flp-In T-REX HEK293 (SOAT-HEK293), tetracycline-induced
T2 sequence (Q3KNW5 1-377): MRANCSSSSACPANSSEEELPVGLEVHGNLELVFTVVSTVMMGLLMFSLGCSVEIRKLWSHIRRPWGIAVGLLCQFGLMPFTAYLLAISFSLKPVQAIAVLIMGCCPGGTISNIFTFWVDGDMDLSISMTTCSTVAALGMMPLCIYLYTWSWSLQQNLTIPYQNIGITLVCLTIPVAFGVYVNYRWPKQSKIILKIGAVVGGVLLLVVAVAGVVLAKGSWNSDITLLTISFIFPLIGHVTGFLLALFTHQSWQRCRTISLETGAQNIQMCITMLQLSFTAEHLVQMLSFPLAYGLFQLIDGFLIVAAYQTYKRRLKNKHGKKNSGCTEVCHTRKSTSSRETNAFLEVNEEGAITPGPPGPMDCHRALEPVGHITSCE
In words: Substrate screening: sodium-dependent uptake of radiolabeled compounds in SOAT-HEK293 cells. It counts as cell-based. Particulars: radiolabeled steroid compounds 200 nM, 10 min, SOAT-HEK293, vs sodium-free control. The protocol:
as §2, §1, §3

For experiment [4], the target named is T2, SOAT. Further details: method as in Geyer et al. (2007). Conditions: uptake via SOAT, same SOAT-HEK293 cell line; ref Geyer et al. (2007); cited from earlier work.
The target in experiment [5] is T2, SOAT. In words: Transport inhibition in SOAT-HEK293 cells. It counts as cell-based. Particulars: triterpenoid inhibitors, 10 min after 5 min preincubation. The protocol: (§4) Cells were washed three times with PBS and were preincubated with the respective inhibitor in sodium transport buffer for 5 min at 37°C. Uptake was initiated by adding the respective radiolabeled substrate to the well and incubating for a fixed time as indicated in the figures at 37°C. Transport was terminated by removing the transport buffer and washing five-times with ice-cold PBS. Cell monolayers were lysed in 1 N NaOH with 0.1% SDS and the cell-associated radioactivity and protein content was determined as described above. For uptake inhibition with the myr-preS1 peptide the sodium transport buffer contained additionally MEM-amino acid solution (ThermoFisher) at 1:50 dilution.
(§5) All transport or inhibition graphs were generated with GraphPad Prism 6.0 (GraphPad). Determination of IC50 values was done by nonlinear regression analysis using the equation log (inhibitor) vs. response settings. If not stated otherwise in the legends all data represent means ± SD of at least triplicate determinations of representative experiments.
(§6) FIGURE 3 Inhibition of NTCP, ASBT, and SOAT with substrate inhibitors. Transport of [^3H]TC, [^3H]TLC, and [^3H]DHEAS was analyzed in NTCP-HEK293, ASBT-HEK293, and SOAT-HEK293 cells in the presence of the substrate inhibitors TC, TLC, and DHEAS at increasing concentrations ranging from 100 nM till 1000 µM. After 5 min of preincubation with the respective inhibitory compound, 200 nM [^3H]TLC, [^3H]TC or [^3H]DHEAS were added for additional 1 min and the cell lysates were analyzed by liquid scintillation counting. Unspecific uptake of HEK293-FlpIn cells was set to 0%. Carrier-specific uptake without inhibitor was set to 100%.
(§7) Transport of [^3H]TC, [^3H]TLC, and [^3H]DHEAS was analyzed in NTCP-HEK293, ASBT-HEK293, and SOAT-HEK293 cells in the presence of different supposed non-substrate triterpenoid inhibitors as indicated at increasing concentrations ranging from 100 nM till 1000 µM. After 5 min of preincubation with the respective inhibitory compound, 1 µM [^3H]TLC, [^3H]TC or [^3H]DHEAS were added for additional 10 min at 37°C and the cell lysates were analyzed by liquid scintillation counting. Experiments performed without inhibitor were set to 100%. Means of negative controls were subtracted to calculate net transport rates (expressed as percentage of control). Data represent means ± SD of quadruplicate determinations of representative experiments.

The subject of a further experiment is HDV. Particulars: in vitro; ref Kirstgen et al., 2020; cited from earlier work.
Another experiment addresses T3, ASBT (Homo sapiens, UniProt Q12908).
T3 construct: The full-length open reading frames of NTCP, ASBT, and SOAT were cloned; expressed in transfected cells; host or cells: Flp-In T-REX HEK293 (ASBT-HEK293), tetracycline-induced
T3 sequence (Q12908 1-348): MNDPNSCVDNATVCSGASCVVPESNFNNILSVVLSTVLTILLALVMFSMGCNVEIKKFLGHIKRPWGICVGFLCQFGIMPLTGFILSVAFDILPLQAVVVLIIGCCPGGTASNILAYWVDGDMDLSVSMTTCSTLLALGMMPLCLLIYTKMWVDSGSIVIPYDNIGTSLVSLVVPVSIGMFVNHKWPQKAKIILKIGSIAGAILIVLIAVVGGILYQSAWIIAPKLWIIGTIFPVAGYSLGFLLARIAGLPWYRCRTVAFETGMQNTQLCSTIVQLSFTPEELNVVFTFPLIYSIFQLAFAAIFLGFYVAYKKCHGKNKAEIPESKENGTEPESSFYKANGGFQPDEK
In words: Transport inhibition in ASBT-HEK293 cells. Conditions: triterpenoid inhibitors, 10 min after 5 min preincubation. It counts as cell-based. The protocol: as §4, §5, §6, §7

The target in experiment [6] is T1, NTCP. The experiment in a line: Transport inhibition in NTCP-HEK293 cells. Particulars: triterpenoid inhibitors, 10 min after 5 min preincubation.
The mark [7] stands for this setting: 1 µM [3H]DHEAS, read-out: SOAT IC50, substrate [3H]DHEAS.
Setting [8] is: 1 µM [3H]TLC, read-out: SOAT IC50, substrate [3H]TLC.
[9] abbreviates: 1 µM [3H]TC, read-out: ASBT IC50, substrate [3H]TC.
The mark [10] stands for this setting: 1 µM [3H]TLC, read-out: ASBT IC50, substrate [3H]TLC.

What is called IC50 is the concentration needed to halve the response being measured.

Where two headings read alike, the source gives them in different places.

On to `C[C@]12CC[C@@H]3c4ccc(OS(=O)(=O)O)cc4CC[C@H]3[C@@H]1CCC2=O` [E1S, Estrone-3-sulfate], for which the “Apparent K m” value is given as 57.6 ± 11.3 µM on NTCP [1] and 12.0 ± 2.3 µM on SOAT [4]. The V max is recorded as 2367 ± 170.8 pmol/mg protein/min at NTCP [1] and 585 ± 34 pmol/mg protein/min at SOAT [4]. Further, the “Transport activity grading NTCP (mean uptake)” value on NTCP [2] was “++ (“++” for values between 10 and 100)”. In addition, the “Transport activity grading SOAT (mean uptake)” value on SOAT [3] is recorded as “+ (Mean uptake “+” for values below 10)”.

For `C=C(C)[C@@H]1CC[C@]2(C(=O)O)CC[C@]3(C)[C@H](CC[C@@H]4[C@@]5(C)CC[C@H](O)C(C)(C)[C@@H]5CC[C@]43C)[C@@H]12` [Betulinic acid], the IC50 is 1.2 µM on SOAT [5] (setting [7]), 9.5 µM at SOAT [5] (setting [8]), > 1000 µM at ASBT (setting [9]) and 193 µM at ASBT (setting [10]). The “anti-HDV activity in vitro” value with HDV was “anti-HDV activity”.

With Pregnenolone sulfate [PREGS], the “Apparent K m” value on NTCP [1] was 8.8 ± 2.1 µM; at SOAT [4], 11.3 ± 3.0 µM. The V max at NTCP [1] is recorded as 1036 ± 69.1 pmol/mg protein/min; at SOAT [4], 2168 ± 134 pmol/mg protein/min. Further, the “Transport activity grading NTCP (mean uptake)” value at NTCP [2] was “+++ (“+++” for values above 100 pmol/mg protein/10 min for sulfated steroid hormones)”. Also, the “Transport activity grading SOAT (mean uptake)” value on SOAT [3] is listed as “+++ (“+++” for values above 100 pmol/mg protein/10 min for sulfated steroid hormones)”.

`C=C(C)[C@@H]1CC[C@]2(CO)CC[C@]3(C)[C@H](CC[C@@H]4[C@@]5(C)CC[C@H](OC(=O)/C=C/c6ccc(O)c(O)c6)C(C)(C)[C@@H]5CC[C@]43C)[C@@H]12` [3-O-Caffeoyl betulin]: the IC50 on NTCP [6] (NTCP IC50, substrate [3H]DHEAS, 1 µM [3H]DHEAS) is 49.1 µM; against NTCP [6] (NTCP IC50, substrate [3H]TC, 1 µM [3H]TC), 129 µM; at NTCP [6] (NTCP IC50, substrate [3H]TLC, 1 µM [3H]TLC), 2.1 µM; at SOAT [5] (setting [7]), 301 µM; on SOAT [5] (setting [8]), 37.8 µM; at ASBT (setting [9]) it was 499 µM. In addition, the IC50 at ASBT (setting [10]) is 99.7 µM.

On to `C=C(C)[C@@H]1CC[C@]2(CO)CC[C@]3(C)[C@H](CC[C@@H]4[C@@]5(C)CC[C@H](O)C(C)(C)[C@@H]5CC[C@]43C)[C@@H]12` [Betulin], for which the IC50 at SOAT [5] (SOAT IC50, substrate [3H]DHEAS, 1 µM [3H]DHEAS) was 912 µM; against SOAT [5] (SOAT IC50, substrate [3H]TLC, 1 µM [3H]TLC), 50.1 µM; at ASBT (ASBT IC50, substrate [3H]TC, 1 µM [3H]TC), > 1000 µM; on ASBT (ASBT IC50, substrate [3H]TLC, 1 µM [3H]TLC), 192 µM.
